These results are taken from patent US7087420B1, “Microbial β-glucuronidase genes, gene products and uses thereof” (Cambia, priority 1997, dated 2006).

The test system of one series is Millin rice plants. The conditions noted are these: MUG 1 mM in water.
The next series concerns rice seeds. The experiment in a line: Growth of rice plants germinated in water containing glucuronide substrate. It is filed as in vivo. The conditions noted are these: 50 μg/mL X-GlcA in germination water.
The target in series [1] is T1, E. coli β-glucuronidase (E. coli GUS, GUS^Eco), wild type, SEQ ID NO: 23 (Escherichia coli, UniProt P05804).
T1 construct: pNPG substrate; functional homotetramer
T1 sequence (P05804 whole entry): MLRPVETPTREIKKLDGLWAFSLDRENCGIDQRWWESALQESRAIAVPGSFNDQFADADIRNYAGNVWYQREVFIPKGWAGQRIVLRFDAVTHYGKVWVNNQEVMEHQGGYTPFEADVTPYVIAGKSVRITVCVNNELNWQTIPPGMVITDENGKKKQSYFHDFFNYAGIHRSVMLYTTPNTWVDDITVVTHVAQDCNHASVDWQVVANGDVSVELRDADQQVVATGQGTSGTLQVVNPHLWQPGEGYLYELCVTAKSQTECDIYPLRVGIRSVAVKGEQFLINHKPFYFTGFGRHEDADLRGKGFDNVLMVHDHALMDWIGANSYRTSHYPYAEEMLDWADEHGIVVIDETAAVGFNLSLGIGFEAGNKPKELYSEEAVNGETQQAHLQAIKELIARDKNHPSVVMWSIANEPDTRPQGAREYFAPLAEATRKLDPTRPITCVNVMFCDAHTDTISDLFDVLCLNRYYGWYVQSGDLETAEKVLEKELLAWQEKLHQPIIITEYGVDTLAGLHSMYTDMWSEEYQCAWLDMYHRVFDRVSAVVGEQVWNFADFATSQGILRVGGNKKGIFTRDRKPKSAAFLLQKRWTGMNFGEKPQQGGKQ
The note with it: background statement, no concentration; cited from earlier work.

For series [2], the system named is Staphylococcus β-glucuronidase (GUS^Stp, Staph GUS), wild type, SEQ ID NO: 18 (DNA SEQ ID NO: 1). Nature of the series: Inhibition of Staphylococcus GUS by end product glucuronic acid. It is filed as biochemical. As for the experimental part:
GUS^Stp enzyme activity is also resistant to inhibition by detergents. Enzyme activity assays are measured in the presence of varying amounts of SDS, Triton® X-100, or sarcosyl. […] In SDS, the enzyme still had substantial activity (60–75% activity). In addition, GUS^Stp is not inhibited by the end product of the reaction. Activity is determined normally or in the presence of 1 or 10 mM glucuronic acid. No inhibition is seen at either 1 or 10 mM glucuronic acid (FIG. 11). The enzyme is also assayed in the presence of organic solvents, dimethylformamide (DMF) and dimethylsulfoxide (DMSO), and high concentrations of NaCl (FIG. 12).

The conditions of series [3]: chromophore released from pNPG; cited from earlier work.
The subject of series [4] is Staphylococcus β-glucuronidase (GUS^Stp, Staph GUS), wild type, SEQ ID NO: 18 (DNA SEQ ID NO: 1). Nature of the series: Kinetics of pNPG hydrolysis by Staphylococcus GUS (spectrophotometric p-nitrophenol release). The class given is biochemical. As for the experimental part:
The thermal stability of GUS^Stp and E. coli GUS enzymes are determined at 65° C., using a substrate that can be measured by spectrophotometry, for example. One such substrate is p-nitrophenyl β-D-glucuronide (pNPG), which when cleaved by GUS releases the chromophore p-nitrophenol. At a pH greater than its pKa (approximately 7.15), the ionized chromophore absorbs light at 400–420 nm, therefore appears in the yellow range of visible light. Briefly, reactions are performed in 50 mM Na3PO4 pH 7.0, 10 mM 2-ME, 1 mM EDTA, 1 mM pNPG, and 0.1% Triton® X-100 at 37° C. The reactions are terminated by the addition of 0.4 ml of 2-amino-2-methylpropanediol, and absorbance measured at 415 nm against a substrate blank. Under these conditions, the molar extinction coefficient of p-nitrophenol is assumed to be 14,000: One unit is defined as the amount of enzyme that produces 1 nmole of product/min at 37° C.
Turnover number is calculated as nmoles of pNPG converted to p-nitrophenol per min per μg of purified protein.

A further series concerns yeast colonies. Nature of the series: Yeast colonies on X-GlcA expression plates containing tunicamycin. It is filed as cell-based. The note with it: tunicamycin 5, 10, and 20 μg/ml.
A further series concerns yeast strain InvSc1. The experiment in a line: Growth of transformed yeast colonies on expression plates with tunicamycin. The note with it: tunicamycin 5, 10, and 20 μg/ml.

Procedure for Millin rice plants: Seeds of T0 plants, which are the primary transformed plants, from pTANG86.1/2/3/4/5/6 (see Table 7 below) transformed plants, seeds of pCAM1301 (E. coli GUS with N358-Q change to remove N-glycosylation signal sequence) transformed plants, or untransformed Millin rice seeds are germinated in water containing 1 mM MUG or 50 μg/mL X-GlcA with or without hygromycin (for nontransformed plants). Resulting plants are observed for any reduced growth due to the presence of MUG, X-GlcA.
Procedure for yeast strain InvSc1: Yeast strain InvSc1 (mat α his3-Δ1 leu2 trp1-289 ura3-52) from Invitrogen (Carlsbad, Calif.) is transformed with the E. coli GUS and Staphylococcus GUS plasmids indicated in the table below. Transformants are plated on both selection media (minimal media supplemented with His, Leu, Trp, and 2% glucose as a carbon source to suppress the expression of the gene driven by the gal1 promoter) and expression media (media supplemented with His, Leu, Trp, 1% raffinose, 1% galactose as carbon source and with 50 μg/ml X-GlcA).
To determine whether the N-glycosylation site has a deleterious effect, on secretion, yeast colonies are streaked on expression plates containing X-GlcA and from 0.1 to 20 μg/ml of tunicamycin (to inhibit all N-glycosylation).

As for `Cc1cc(=O)oc2cc(O[C@@H]3O[C@H](C(=O)O)[C@@H](O)[C@H](O)[C@H]3O)ccc12` [MUG, 4-methylumbelliferyl β-D-glucuronide], the “Effect on roots of rice plants (reduced growth)” value with Millin rice plants is reported as “somewhat stunted”.
With `O=C(O)[C@H]1O[C@@H](Oc2c[nH]c3ccc(Br)c(Cl)c23)[C@H](O)[C@@H](O)[C@@H]1O` [X-GlcA, 5-bromo-4-chloro-3-indolyl β-D-glucuronide], in the series with rice seeds, the “toxic effects / reduced growth of plants” value is “No toxic effects”.
On to `O=C(O)[C@H]1OC(O)[C@H](O)[C@@H](O)[C@@H]1O` (stereo partly drawn) [glucuronic acid], for which the “Inhibition by end product (glucuronic acid)” value in series [1] is given as “inhibited”. Moreover, the “Inhibition by glucuronic acid” value in series [2] (1 mM glucuronic acid (FIG. 11)) and in series [2] (10 mM glucuronic acid (FIG. 11)) was “No inhibition” in each case. The “Inhibition by glucuronic acid (summary statement)” value in series [2] (unlike E. coli GUS, FIG. 11) is given as “not substantially inhibited”.
For `O=[N+]([O-])c1ccc(O)cc1` [p-nitrophenol], the pKa result in series [3] is given as “approximately 7.15”.
`O=C(O)[C@H]1O[C@@H](Oc2ccc([N+](=O)[O-])cc2)[C@H](O)[C@@H](O)[C@@H]1O` [pNPG, p-nitrophenyl β-D-glucuronide]: the “Vmax relative to E. coli GUS” value in series [4] (GUS^Stp vs E. coli GUS, 37° C.) is recorded as “about the same”. Further, in series [4] (GUS^Stp vs E. coli GUS, 37° C. (FIG. 8)), the “Turnover number relative to E. coli GUS” value is given as “approximately the same as E. coli GUS”. In series [4] (Staph GUS, substrate pNPG, 37° C.), the Vmax was 80 nmol/min/µg.
On to tunicamycin [listing 1 of 2 here], for which the “growth of yeast colonies” value in the series on yeast colonies is “do not grow”.
In the case of tunicamycin [listing 2 of 2 here], the “Yeast colony growth (toxicity)” value in the series with yeast strain InvSc1 is “do not grow”.
